The text below walks through data of US20140328795A1, “VIRUCIDAL SMALL MOLECULE AND USES THEREOF” (The Texas A&M University System, priority 2012, published 2014).

The test system of one series is HSV-1 (Syn 17). The format is cell-based. Particulars: 2 μM and 0.2 μM PD. Here is the method: (§1) FIGS. 16A-16B depict effectiveness of PD against HSV. PD blocks HSV infection. Vero cells were seeded in a 24-well plate and infected with HSV-1 (Syn 17) or HSV-2 (333) (FIG. 16A). PD (200 nM) or control DMSO (0.01%) was added immediately to the target cells after viral inoculation. Two days later, the cells were harvested, stained with antibody against HSV glycoprotein gD and analyzed by flow cytometry. Error bars represent standard deviation of triplicate samples. Results are representative of two independent experiments. PD Destabilizes HSV particles (FIG. 16B). Concentrated HSV (˜20 μg/mL) was incubated with DMSO (0.01%) or PD (200 nM) for 30 min at 37° C. and the mixture was immediately loaded over a 20-70% sucrose density gradient. The amount of HSV glycoprotein gpB in each fraction was analyzed by ELISA. The sucrose gradient density of each fraction was determined by measuring the refractive index. Results are representative of 2 independent experiments. Error bars represent the standard deviation of triplicate samples.
(§2) Vero cells (2×10^5 cells/well) were seeded in a 24 well plate. The next day, these cells were infected with increasing titers (MOI range 0.0001-1) of HSV-1 (Syn 17) or HSV-2 (333) in the presence of PD (2 μM and 200 nM) or control DMSO (0.01%) prepared in DMEM in the absence of serum. Two days post-inoculation, cells were harvested, fixed with 5% paraformaldehyde (PFA) in PBS, stained with antibodies against HSV glycoprotein gD (Novus biological, Littleton, Colo.) and analyzed by flow cytometry.
(§3) Applicants investigated the ability of PD to inactivate HSV-1 and -2. Vero cells were infected with HSV-1 and HSV-2 in the presence of PD (2 μM and 0.2 μM) or DMSO (0.01%). These concentrations were selected based on their closeness to the in vitro IC50 of PD against HIV-1. Infection was quantified by the cell surface expression of HSV gD. […] Similar results were obtained for both concentrations and the data from the lowest concentration is presented.

The subject of another series is HSV-2 (333). The class given is cell-based. Particulars: 2 μM and 0.2 μM PD. Here is the method: as §1, §2, §3
For the next series, the system named is HSV-1 virions. Conditions: 0.2 μM PD, 30 min, 37° C.; 20-70% sucrose gradient. Here is the method:
as §1, with “Concentrated HSV (˜20 μg/mL) was incubated with DMSO (0.01%) or PD (200 nM) for 30 min at 37° C. and the mixture was immediately loaded over a 20-70% sucrose density gradient.” left out, “Results are representative of 2 independent experiments. Error bars represent the standard deviation of triplicate samples.” left out
HSV was concentrated by loading 30 mL HSV-1-infected Vero cell supernatant on a 20% sucrose cushion and centrifuged in a SW28 rotor at 20,000 rpm for 1 h at 4° C. […] After ultracentrifugation at 30,000 rpm for 24 h in a SW-41 T rotor at 4° C., fractions of 1 mL were collected and analyzed for HSV gpB content by enzyme-linked immunosorbent assay (ELISA) using homemade rabbit polyclonal antibody. The density of each fraction from the sucrose gradient was determined by measuring the refractive index.
Applicants also investigated whether PD can disrupt the structure of HSV virions. […] Each gradient fraction was analyzed for HSV glycoprotein gpB by ELISA. […]

For series [1], the system named is freshly activated human PBMCs.

Like-named read-outs stand apart in the source and are kept apart here.

With `N=C1Sc2ccccc2C2=NCCCN12` [PD, PD 404,182], the “effect on HSV-1 infection” value with HSV-1 (Syn 17) (MOI 1) was “partial protection”; in the series with HSV-1 (Syn 17) (MOI from 0.0001 to 0.1), “inhibit both HSV-1 and HSV-2 infection”. Besides, the “effect on HSV-2 infection” value in the series on HSV-2 (333) (MOI 1) is “partial protection”; in the series on HSV-2 (333) (MOI from 0.0001 to 0.1), “inhibit both HSV-1 and HSV-2 infection”. The “sedimentation of HSV gpB in sucrose gradient” value with HSV-1 virions is “all gpB distributed to the top of the gradient”. In addition, the “reduction in cell viability” value in series [1] came to 48%.
